These results are taken from US5616684A, “Cyclic peptides and use thereof” (priority 1991, dated 1997).

The conditions of data set [1]: amide bond, 4 steps.
In data set [2] the target is T1, endothelin receptor A (ETA) (Sus scrofa, UniProt Q29010).
T1 construct: A membrane fraction prepared from the porcine heart; from tissue; host or cells: porcine heart membrane fraction
T1 sequence (Q29010 21-427): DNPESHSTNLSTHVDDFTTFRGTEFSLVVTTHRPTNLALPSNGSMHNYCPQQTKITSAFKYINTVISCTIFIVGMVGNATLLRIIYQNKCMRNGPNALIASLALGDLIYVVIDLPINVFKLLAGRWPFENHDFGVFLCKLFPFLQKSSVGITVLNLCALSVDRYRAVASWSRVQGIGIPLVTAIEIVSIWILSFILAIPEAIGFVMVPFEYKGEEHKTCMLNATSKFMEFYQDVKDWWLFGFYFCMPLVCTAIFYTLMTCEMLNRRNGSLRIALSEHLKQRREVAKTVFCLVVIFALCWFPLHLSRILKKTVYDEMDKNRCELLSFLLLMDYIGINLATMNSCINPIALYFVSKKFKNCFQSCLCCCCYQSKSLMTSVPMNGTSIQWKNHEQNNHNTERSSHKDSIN
Nature of the data set: Assay of Affinity for Receptor (1): Binding Activity on ETA Receptor. Set-up: key to Binding Activity on ET Receptor (R. act.) ETA: relative binding activity; reference cyclic pentapeptide = 1.0. The conditions noted are these: specific activity, binding activity of cyclo[-D-Glu-Ala-D-aIle-Leu-D-Trp-] taken as 1.0; porcine heart membrane fraction, 125I-labeled endothelin-1, 25° C., 1 hour. The protocol:
Assay of Affinity for Receptor (1) . . . Binding Activity on ETA Receptor
A membrane fraction prepared from the porcine heart was diluted to 0.15 mg/ml by using a buffer solution for assay, and 100 μl of the resulting suspension of the membrane fraction was poured into each assay tube to use for assay. To this suspension of the membrane fraction was added 2 μl of 5 nM ^125 I-labeled endothelin-1 solution. Further, 3 μl of a test peptide solution was added thereto, followed by incubation at a temperature of 25° C. for 1 hour. Then, the resulting suspension was diluted with 900 μl of the buffer solution for assay cooled with ice, and thereafter separated into a supernatant and a precipitate by centrifugation at 12,000×g for 10 minutes. Cell membranes and an endothelin receptor A (ETA) embedded therein were contained in the precipitate, and radioactive iodine-labeled endothelin combined with the receptor was also recovered in the precipitate. Accordingly, the amount of radioactive iodine-labeled endothelin combined with the endothelin receptor A (ETA) was determined by measuring the amount of radioactive iodine contained in the precipitate with a gamma-ray counter. The cyclic pentapeptide described in Japanese Patent Application No. 2-413828/1990, cyclo[-D-Glu-Ala-D-aIle-Leu-D-Trp-], was used as a control compound. The numerical value of ETA shown in Table 1 is the value of specific activity, taking the binding activity of this cyclic pentapeptide on the receptor A as 1.0. The binding activity (IC50) of this cyclic pentapeptide on the ETA receptor is 2×10^-6 M.

The test system of data set [3] is ETB receptor (guinea pig kidney crude receptor membrane fraction). Nature of the data set: ETB Radio Receptor Assay *2. Format: binding. The conditions noted are these: relative activity (Example 8 given as 100), 125I-endothelin-1, 37° C., 90 minutes. As for the experimental part:
ETB Radio Receptor Assay *2
In the endothelin radio receptor assay, guinea pigs' kidneys were used. Guinea pigs (Std Hartrey, male 250 g, Japan SLC Ltd.) were made to have a cerebral concussion and sacrificed by bleeding from carotid arteries to pick up the kidneys and removed fat therefrom to prepare the kidneys. The obtained kidneys were sliced and homogenized by politron homogenizer in 20 ml of 50 mM Tris-HCl buffer [pH 7.4; 20 mM NaHCO3, 0.1 mM PMSF (Phenylmethylsulfonyl Fluoride), 1 mM EDTA (Ethylenediaminetetraacetic acid)] per one kidney. The homogenized kidney was applied to a centrifugation at 1,000×g for 15 minutes and the supernatant was further applied to a centrifugation for 20 minutes at 30,000×g. The resulting precipitate was twice washed with 50 mM Tris-HCl buffer (pH 7.4) containing 0.1 mM PMSF, 1 mM EDTA. The resultant was stored at -80 ° C. as a crude receptor membrane fraction and was used as the suspension in the following buffer when necessary.
740 Bq of ^125 I-endothelin-1 (81.4 TBq/mmol, Du Pont, USA) as a radio ligand, the crude membrane fraction (2.1 μg protein) and samples were added to the following buffer. The reaction was performed at 37° C., for 90 minutes in 0.2 ml of the buffer [50 mM Tris-HCl buffer (pH 7.4) containing 0.1 mM PMSF, 1 mM EDTA, 0.2% bovine serum albumin].
The reaction was stopped by fast filtration on a glass filter (GF/B, Wattman, USA) by Cell Harvestor (290 PHD, Cambridge-Technology, Great Britain), and the filter was three times washed with 50 mM Tris-HCl buffer (pH 7.4). Radio activity remained on the filter was assayed by a gamma counter.

Read-outs that look alike come from different tables or passages of the source. Non-standard residues stand in square brackets, D forms with d. Residues, ends and D or L forms follow the SMILES beside them.

With `CC(C)C[C@@H]1NC(=O)[C@@H](CC(C)C)NC(=O)[C@H](CC(=O)O)NC(=O)[C@H](CC(=O)NCCc2ccccc2)NC(=O)[C@@H](CC(=O)O)NC(=O)[C@@H](Cc2c[nH]c3ccccc23)NC1=O` [cyclo[-D-Asp-Asn(CH2 CH2 Ph)-Asp-D-Leu-Leu-D-Trp-]], the ring closure, yield of all isomers in data set [1] (from CC(C)C[C@H](NC(=O)[C@@H](CC(C)C)NC(=O)[C@H](CC(=O)OCc1ccccc1)NC(=O)[C@H](CC(=O)NCCc1ccccc1)NC(=O)[C@@H](CC(=O)OCc1ccccc1)NC(=O)[C@@H](Cc1c[nH]c2ccccc12)NC(=O)OC(C)(C)C)C(=O)O, HONB/DCC (ONB active ester), then TEA, DMF, 3.46 mM, 16.0 h) amounted to 24.1%. `CC(C)C[C@@H]1NC(=O)[C@@H](CC(C)(C)C)NC(=O)[C@H](CC(=O)O)NC(=O)[C@H](Cc2c[nH]c3ccccc23)NC(=O)[C@@H](CC(=O)O)NC(=O)[C@@H](Cc2c[nH]c3ccccc23)NC1=O` [cyclo[-D-Asp-Trp-Asp-D-γMeLeu-Leu-D-Trp-]]: the ring closure, yield of all isomers in data set [1] (from CC(C)C[C@H](NC(=O)[C@@H](CC(C)(C)C)NC(=O)OC(C)(C)C)C(=O)N[C@H](Cc1c[nH]c2ccccc12)C(=O)N[C@H](CC(=O)OCc1ccccc1)C(=O)N[C@@H](Cc1c[nH]c2ccccc12)C(=O)N[C@@H](CC(=O)OCc1ccccc1)C(=O)O, HONB/DCC (active ester), then TEA, DMF, 4.97 mM, 16.0 h) amounted to 51.5%.

In data set [1] (from CC(C)C[C@H](NC(=O)[C@@H](CC(C)C)NC(=O)[C@@H](CC(=O)OCc1ccccc1)NC(=O)[C@H](C)NC(=O)[C@@H](CC(=O)OCc1ccccc1)NC(=O)[C@@H](Cc1c[nH]c2ccccc12)NC(=O)OC(C)(C)C)C(=O)O, HONB/DCC (active ester), TEA, DMF, 5.0 mM), `CC(C)C[C@@H]1NC(=O)[C@@H](CC(C)C)NC(=O)[C@@H](CC(=O)O)NC(=O)[C@H](C)NC(=O)[C@@H](CC(=O)O)NC(=O)[C@@H](Cc2c[nH]c3ccccc23)NC1=O` [cyclo[-D-Asp-Ala-D-Asp-D-Leu-Leu-D-Trp-]] came in with a ring closure, yield of all isomers of 15.3%. In data set [1] (from CC(C)C[C@H](NC(=O)[C@@H](CC(C)C)NC(=O)[C@H](CC(=O)OCc1ccccc1)NC(=O)[C@H](CC(=O)NCCc1c[nH]c2ccccc12)NC(=O)[C@@H](CC(=O)OCc1ccccc1)NC(=O)[C@@H](Cc1c[nH]c2ccccc12)NC(=O)OC(C)(C)C)C(=O)O), `CC(C)C[C@@H]1NC(=O)[C@@H](CC(C)C)NC(=O)[C@H](CC(=O)O)NC(=O)[C@H](CC(=O)NCCc2c[nH]c3ccccc23)NC(=O)[C@@H](CC(=O)O)NC(=O)[C@@H](Cc2c[nH]c3ccccc23)NC1=O` [cyclo[-D-Asp-Asn(CH2 CH2 -Ind)-Asp-D-Leu-Leu-D-Trp-]] registered a ring closure, yield of all isomers of 19.4%. Molecule `CC(C)C[C@@H]1NC(=O)[C@@H](CC(C)C)NC(=O)[C@H](CCC(=O)O)NC(=O)[C@H](C)NC(=O)[C@@H](CC(=O)O)NC(=O)[C@@H](Cc2c[nH]c3ccccc23)NC1=O` [cyclo[-D-Asp-Ala-Glu-D-Leu-Leu-D-Trp-]] displayed a ring closure, yield of all isomers in data set [1] (from CC(C)C[C@H](NC(=O)[C@@H](CC(C)C)NC(=O)[C@H](CCC(=O)OCc1ccccc1)NC(=O)[C@H](C)NC(=O)[C@@H](CC(=O)OCc1ccccc1)NC(=O)[C@@H](Cc1c[nH]c2ccccc12)NC(=O)OC(C)(C)C)C(=O)O, HONB/DCC (active ester), TEA, DMF, 4.97 mM, 16.0 h) of 24.1%. On to `CC(C)C[C@@H]1NC(=O)C2(CCC2)NC(=O)[C@H](CC(=O)O)NC(=O)[C@H](Cc2c[nH]c3ccccc23)NC(=O)[C@@H](CC(=O)O)NC(=O)[C@@H](Cc2c[nH]c3ccccc23)NC1=O` [cyclo[-D-Asp-Trp-Asp-Acbu-Leu-D-Trp-]], for which the ring closure, yield of all isomers in data set [1] (from CC(C)C[C@H](NC(=O)C1(NC(=O)OC(C)(C)C)CCC1)C(=O)N[C@H](Cc1c[nH]c2ccccc12)C(=O)N[C@H](CC(=O)OCc1ccccc1)C(=O)N[C@@H](Cc1c[nH]c2ccccc12)C(=O)N[C@@H](CC(=O)OCc1ccccc1)C(=O)O, HONB/DCC (active ester), TEA, DMF, 4.95 mM) was 10.4%. In turn, `CC(C)C[C@@H]1NC(=O)[C@@H](CC(C)C)NC(=O)[C@H](CC(=O)O)NC(=O)[C@H](CCCNC(=O)Cc2c[nH]c3ccccc23)NC(=O)[C@@H](CC(=O)O)NC(=O)[C@@H](Cc2c[nH]c3ccccc23)NC1=O` [cyclo[-D-Asp-Orn(COCH2 -Ind)-Asp-D-Leu-Leu-D-Trp-]] gave a ring closure, yield of all isomers in data set [1] (from CC(C)C[C@H](NC(=O)[C@@H](CC(C)C)NC(=O)[C@H](CC(=O)OCc1ccccc1)NC(=O)[C@H](CCCNC(=O)Cc1c[nH]c2ccccc12)NC(=O)OC(C)(C)C)C(=O)N[C@H](Cc1c[nH]c2ccccc12)C(=O)N[C@H](CC(=O)OCc1ccccc1)C(=O)O) of 12.5%. Regarding `CC(C)C[C@@H]1NC(=O)[C@@H](C(C)(C)C)NC(=O)[C@H](CC(=O)O)NC(=O)[C@H](Cc2c[nH]c3ccccc23)NC(=O)[C@@H](CC(=O)O)NC(=O)[C@@H](Cc2c[nH]c3ccccc23)NC1=O` [cyclo[-D-Asp-Trp-Asp-D-tLeu-Leu-D-Trp-]], the ring closure, yield of all isomers in data set [1] (from CC(C)C[C@H](NC(=O)[C@H](NC(=O)OC(C)(C)C)C(C)(C)C)C(=O)N[C@H](Cc1c[nH]c2ccccc12)C(=O)N[C@H](CC(=O)OCc1ccccc1)C(=O)N[C@@H](Cc1c[nH]c2ccccc12)C(=O)N[C@@H](CC(=O)OCc1ccccc1)C(=O)O, HONB/DCC (active ester), then TEA, DMF, 5.03 mM, 16.0 h) was found to be 42.8%. Regarding `CC(C)C[C@@H]1NC(=O)[C@@H](CC(C)C)NC(=O)[C@H](CC(=O)O)NC(=O)[C@H](CCCNC(=O)c2ccccc2)NC(=O)[C@@H](CC(=O)O)NC(=O)[C@@H](Cc2c[nH]c3ccccc23)NC1=O` [cyclo[-D-Asp-Orn(COPh)-Asp-D-Leu-Leu-D-Trp-]], the ring closure, yield of all isomers in data set [1] (from CC(C)C[C@H](NC(=O)[C@@H](CC(C)C)NC(=O)[C@H](CC(=O)OCc1ccccc1)NC(=O)[C@H](CCCNC(=O)c1ccccc1)NC(=O)OC(C)(C)C)C(=O)N[C@H](Cc1c[nH]c2ccccc12)C(=O)N[C@H](CC(=O)OCc1ccccc1)C(=O)O, HONB/DCC (active ester), TEA, DMF, 5.03 mM) stood at 48.1%. Regarding `CC(C)C[C@@H]1NC(=O)[C@@H](CC(C)C)NC(=O)[C@H]2CCCN2C(=O)[C@H](CC(=O)O)NC(=O)[C@@H](CC(=O)O)NC(=O)[C@@H](Cc2c[nH]c3ccccc23)NC1=O` [Example 31, Cyclo[--D--Asp--Asp--D--Pro--D--Leu--Leu--D--Trp--]] (cyclo(D[dP][dL]L[dW][dD])), the “Binding Activity on ET Receptor (R. act.) ETA” value in data set [2] was found to be 2.6. In addition, in data set [3], the “Binding Activity on ET Receptor (R. act.) ET8 *2” value was 1.0. As to `CC(C)C[C@@H]1NC(=O)[C@@H](CC(C)C)NC(=O)[C@H](CC(=O)O)NC(=O)[C@H](Cc2ccccc2)NC(=O)[C@@H](CC(=O)O)NC(=O)[C@@H](Cc2c[nH]c3ccccc23)NC1=O` [Example 19, Cyclo[--D--Asp--Phe--Asp--D--Leu--Leu--D--Trp--]] (cyclo(D[dL]L[dW][dD]F)), in data set [2], the “Binding Activity on ET Receptor (R. act.) ETA” value was determined as 8.3. Besides, the “Binding Activity on ET Receptor (R. act.) ET8 *2” value in data set [3] is 7.1.
